Results published in the Kinase Knowledgebase extract (Sharma et al. 2016).

target: EGFR (human) (UniProt P00533)
Sequence (P00533 whole entry, looked up): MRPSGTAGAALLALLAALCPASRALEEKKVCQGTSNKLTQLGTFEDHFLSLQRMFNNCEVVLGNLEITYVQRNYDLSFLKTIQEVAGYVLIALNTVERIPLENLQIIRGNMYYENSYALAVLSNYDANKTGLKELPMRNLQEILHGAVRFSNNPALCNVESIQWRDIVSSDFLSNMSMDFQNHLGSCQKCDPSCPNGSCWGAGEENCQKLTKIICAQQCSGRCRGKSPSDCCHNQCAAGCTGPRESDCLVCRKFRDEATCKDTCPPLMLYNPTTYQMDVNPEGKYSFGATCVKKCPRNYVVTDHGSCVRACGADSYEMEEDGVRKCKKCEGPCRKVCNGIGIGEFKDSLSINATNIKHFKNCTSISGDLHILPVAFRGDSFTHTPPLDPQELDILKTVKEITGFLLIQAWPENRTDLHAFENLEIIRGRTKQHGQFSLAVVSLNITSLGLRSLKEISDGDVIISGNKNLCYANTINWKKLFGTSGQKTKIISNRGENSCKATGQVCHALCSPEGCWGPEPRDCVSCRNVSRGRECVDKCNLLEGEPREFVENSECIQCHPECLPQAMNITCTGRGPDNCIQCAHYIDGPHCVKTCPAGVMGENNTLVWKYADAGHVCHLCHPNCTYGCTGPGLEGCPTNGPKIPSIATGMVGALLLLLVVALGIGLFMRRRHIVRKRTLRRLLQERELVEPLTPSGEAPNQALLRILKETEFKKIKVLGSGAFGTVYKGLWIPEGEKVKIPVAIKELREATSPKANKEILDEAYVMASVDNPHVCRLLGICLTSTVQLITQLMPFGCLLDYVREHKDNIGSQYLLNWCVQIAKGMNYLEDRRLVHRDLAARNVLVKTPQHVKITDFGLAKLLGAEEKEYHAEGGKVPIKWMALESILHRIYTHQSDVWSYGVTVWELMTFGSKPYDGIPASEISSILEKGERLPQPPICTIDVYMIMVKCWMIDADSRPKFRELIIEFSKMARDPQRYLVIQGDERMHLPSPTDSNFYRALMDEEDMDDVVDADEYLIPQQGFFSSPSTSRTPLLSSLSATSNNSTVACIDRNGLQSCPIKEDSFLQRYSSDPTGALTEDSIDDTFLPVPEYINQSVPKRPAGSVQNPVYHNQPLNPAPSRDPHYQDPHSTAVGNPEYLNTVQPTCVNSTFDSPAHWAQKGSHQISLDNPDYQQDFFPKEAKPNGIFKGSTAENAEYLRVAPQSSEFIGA

Structure (SMILES) | IC50 [nM]
CC(=O)N1CCN(c2ccc(Nc3nccc(-c4sc(C(C)C)nc4-c4cccc(NS(=O)(=O)C5CCCCC5)c4)n3)cn2)CC1 | 100 to 1000
O=S(=O)(Nc1cccc(-c2nc(N3CCCC3)sc2-c2ccnc(Nc3ccc(N4CCN(CCF)CC4)c(F)c3)n2)c1)c1c(F)cccc1F | < 100
CC(C)c1nc(-c2ccc(F)c(NS(=O)(=O)c3c(F)cccc3F)c2)c(-c2ccnc(Nc3ccnc(N4CCOCC4)c3)n2)s1 | 100 to 1000
CN(C)c1nc(-c2ccc(F)c(NS(=O)(=O)c3c(F)cccc3F)c2)c(-c2ccnc(Nc3ccc(N4CCN(S(C)(=O)=O)CC4)nc3)n2)s1 | 100 to 1000
Cc1ccc(-c2nc(C(C)C)sc2-c2ccnc(Nc3ccc(N4CCOCC4)nc3)n2)cc1NS(=O)(=O)c1c(F)cccc1F | 100 to 1000
CCNc1nc(-c2cccc(NS(=O)(=O)c3ccccc3)c2)c(-c2ccnc(Nc3ccc(OCCN4CCCC4)c(F)c3)n2)s1 | < 100
CN1CCC(c2nc(-c3ccc(F)c(NS(=O)(=O)c4c(F)cccc4F)c3)c(-c3ccnc(Nc4ccc(N5CCOCC5)nc4)n3)s2)CC1 | 100 to 1000
CC(=O)N1CCN(c2ccc(Nc3nccc(-c4sc(C(C)C)nc4-c4cccc(NS(=O)(=O)c5cccc(F)c5)c4)n3)cn2)CC1 | 100 to 1000
O=S(=O)(Nc1cccc(-c2nc(N3CCOCC3)sc2-c2ccnc(Nc3ccc(N4CCOCC4)nc3)n2)c1F)c1c(F)cccc1F | 100 to 1000
Nc1nc(-c2cccc(NS(=O)(=O)c3c(F)cccc3F)c2)c(-c2ccnc(Nc3ccc(N4CCOCC4)nc3)n2)s1 | 100 to 1000

Next, values leading:

IC50 [nM] | Structure (SMILES)
< 100 | CC(C)c1nc(-c2cccc(NS(=O)(=O)c3c(F)cccc3F)c2)c(-c2ccnc(Nc3ccc(N4CCCNCC4)nc3)n2)s1
< 100 | COc1cc(N2CCN(CCS(C)(=O)=O)CC2)c(C)cc1Nc1nccc(-c2sc(N3CCOCC3)nc2-c2cccc(NS(=O)(=O)c3c(F)cccc3F)c2)n1
< 100 | COc1cc(N2CCN(CCS(C)(=O)=O)CC2)c(C)cc1Nc1nccc(-c2sc(C(C)C)nc2-c2cccc(NS(=O)(=O)c3c(F)cccc3F)n2)n1
100 to 1000 | CC(C)c1nc(-c2cccc(NS(=O)(=O)c3c(F)cccc3F)c2)c(-c2ccnc(Nc3ccc(N4CCN(C(C)C)CC4)cc3O)n2)s1
< 100 | COc1cc(N2CCN(CCS(C)(=O)=O)CC2)c(C)cc1Nc1nccc(-c2sc(C(C)C)nc2-c2cccc(NS(=O)(=O)c3c(F)cccc3F)c2)n1
100 to 1000 | COc1cc(N2CCN(CCS(C)(=O)=O)CC2)c(C)cc1Nc1nccc(-c2oc(N3CCCC3)nc2-c2cccc(NS(=O)(=O)c3c(F)cccc3F)c2)n1
< 100 | COc1cc(N2CCN(CCS(C)(=O)=O)CC2)c(C)cc1Nc1nccc(-c2sc(C(C)C)nc2-c2cccc(NS(=O)(=O)c3cccs3)c2)n1
100 to 1000 | CC(C)c1nc(-c2cccc(NS(=O)(=O)c3c(F)cccc3F)c2)c(-c2ccnc(Nc3ccc(OC4CCN(CCS(C)(=O)=O)CC4)c(F)c3)n2)s1
100 to 1000 | COc1cc(OCCN2CCOCC2)c(C)cc1Nc1nccc(-c2sc(C(C)C)nc2-c2cccc(NS(=O)(=O)c3c(F)cccc3F)c2F)n1
< 100 | COc1cc(OC2CCN(CCS(C)(=O)=O)CC2)c(C)cc1Nc1nccc(-c2sc(C(C)C)nc2-c2cccc(NS(=O)(=O)c3c(F)cccc3F)c2)n1
100 to 1000 | CC(C)c1nc(-c2cccc(NS(=O)(=O)c3c(F)cccc3F)c2)c(-c2ccnc(Nc3ccc(N4CCN5CCOC[C@H]5C4)nc3)n2)s1
100 to 1000 | COc1cc(N2CCN(CCS(C)(=O)=O)CC2)c(C)cc1Nc1nccc(-c2sc(C(C)C)nc2-c2cc(NS(=O)(=O)c3c(F)cccc3F)ccc2F)n1
